“Also recorded” adds a separate entry of the source. Where two headings read alike, the source gives them in different places.
How the values were obtained:
[1] = test system: HeLa (cervical carcinoma); test: 72-hour IC50 determination for adherent cells using sulforhodamine B (SRB); type: cell-based, human; details: 72-hour exposure
Procedure, shortened: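 HeLa cells were seeded at 5,000 cells/well in RPMI-1640 with 10% FBS and exposed continuously for 72 hours to compounds on a half-log scale (1% DMSO final, triplicate). Cells were then TCA-fixed, stained with sulforhodamine B and read at 510 nm. IC50 values came from three or more independent experiments.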

[2] = test system: MCF-7 (breast carcinoma); test: as above; type: cell-based, human; details: error is standard deviation of the mean, n ≧ 3, read-out: MCF-7, 72-hour IC50 (Table E1-2)
Description: (§1) Certain provided compounds were tested in culture against a panel of three supplementary human cancer cell lines representing three additional tumor histologies (H460, lung carcinoma; 786-O, renal carcinoma; MCF-7, breast carcinoma). As shown in Table E1-2, the ETPs retain their potency across the cell lines. In some embodiments, a provided compound is active in all cell lines. In some embodiments, a provide compound can be used to selectively target certain cells and/or cancers. […] Without the intention to be limited, Applicant notes that certain cell lines could be more sensitive to provided compounds; for example, U-937 and HeLa are slightly more sensitive to the ETPs than the other three cell lines.
(§2) Cells were grown in media supplemented with fetal bovine serum (FBS) and antibiotics ([…]). Specifically, experiments were performed using the following cell lines and media compositions: U-937, HeLa, H460, and 786-O (RPMI-1640+10% FBS), and MCF7 (EMEM+10% FBS). Cells were incubated at 37° C. in a 5% CO2, 95% humidity atmosphere.
(§3) Adherent cells (HeLa, H460, 786-O, and MCF7) were added into 96-well plates (5,000 cells/well for HeLa cell line; 2,000 cells/well for H460, 786-O, and MCF7 cell lines) in 100 μL media and were allowed to adhere for 2-3 hours. Compounds were solubilized in DMSO as 100× stocks, added directly to the cells (100 μL final volume), and tested over a range of concentrations in triplicate (1% DMSO final) on a half-log scale. Concentrations tested ranged from […] to 10 μM, depending on the potency of the compound. DMSO and cell-free wells served as the live and dead control, respectively. After 72 hours of continuous exposure, the plates were evaluated using the SRB colorimetric assay as described previously (Vichai, V.; Kirtikara, K. Nature Prot. 2006, 1, 1112). Briefly, media was removed from the plate, and cells were fixed by the addition of 100 μL cold 10% trichloroacetic acid in water. After incubating at 4° C. for an hour, the plates were washed in water and allowed to dry. Sulforhodamine B was added as a 0.057% solution in 1% acetic acid (100 μL), and the plates were incubated at room temperature for 30 minutes, washed in 1% acetic acid, and allowed to dry. The dye was solubilized by adding 10 mM Tris base solution (pH 10.5, 200 μL) and incubating at room temperature for 30 minutes. Plates were read at λ=510 nm. IC50 values were determined from three or more independent experiments using TableCurve (San Jose, Calif.).

[3] = test system: H460 (lung carcinoma); test: as above; type: cell-based, human; details: error is standard deviation of the mean, n ≧ 3, read-out: H460, 72-hour IC50 (Table E1-2)
Description: as §1, §2, §3

[4] = test system: 786-O (renal carcinoma); test: as above; type: cell-based, human; details: error is standard deviation of the mean, n ≧ 3, read-out: 786-O, 72-hour IC50 (Table E1-2)
Description: as §1, §2, §3

[5] = test system: U-937 cells; test: Apoptosis in U-937 cells with Annexin V-FITC and propidium iodide (AnnV/PI), flow cytometry; type: cell-based, human; details: 24 hours, compounds at 100-times their 72-hour IC50
Description: DMSO stocks of compounds were added to a 24-well plate in singlicate (0.2% DMSO final). After compound addition, 0.5 mL of a U-937 cell suspension (250,000 cells/mL) was added and allowed to incubate for 24 hours. Following treatment, the cell suspensions were transferred to flow cytometry tubes and pelleted (500 g, 3 min). The media was removed by aspiration, and cells were re-suspended in 200 μL AnnV binding buffer (10 mM HEPES, pH 7.4, 140 mM NaCl, 2.5 mM CaCl2) with 5 μg/mL PI and 1:90 dilution of AnnV. Samples were analyzed using flow cytometry.

[6] = test system: U-937 (hystiocytic lymphoma); test: 72-hour IC50 determination for non-adherent cells using MTS; type: cell-based, human; details: 72-hour exposure
Procedure, shortened: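 U-937 cells (5,000/well) in RPMI-1640 + 10% FBS were exposed to compounds in triplicate (1% DMSO final) for 72 h at 37 °C. Viability was read by PMS/MTS absorbance at 490 nm, with DMSO wells as live and cell-free wells as dead controls. IC50 came from three or more independent experiments.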

[7] = Stability observed on isolation (concentration / solution); details: observed during isolation and characterization
[8] = test system: human cancer cell lines; test: Anticancer activity in human cancer cell lines, not tied to one cell line; type: cell-based; details: for anticancer activity, in words: human cancer cell lines, 72-hour exposure
Procedure, shortened: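 Cells exposed 72 h to compound on a half-log scale (1% DMSO final); adherent lines (HeLa, H460, 786-O, MCF7) read by SRB staining at 510 nm, U-937 by MTS/PMS absorbance at 490 nm. IC50 from three or more independent experiments.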

[9] = Solubility observed on isolation; details: in CH2Cl2, CHCl3, EtOAc, MeOH, DMSO
[10] = SRB, error is standard deviation of the mean, n ≧ 3, read-out: HeLa, 72-hour IC50 (Table E1-1)
[11] = SRB, error is standard deviation of the mean, n ≧ 3, read-out: HeLa, 72-hour IC50 (Table E1-2)
[12] = MTS, error is standard deviation of the mean, n ≧ 3, read-out: U-937, 72-hour IC50 (Table E1-1)
[13] = MTS, error is standard deviation of the mean, n ≧ 3, read-out: U-937, 72-hour IC50 (Table E1-2)
[14] = Homo sapiens, HeLa, SRB, error is standard deviation of the mean, n ≧ 3, read-out: HeLa, 72-hour IC50 (Table E1-1)
[15] = Homo sapiens, U-937, MTS, error is standard deviation of the mean, n ≧ 3, read-out: U-937, 72-hour IC50 (Table E1-1)

CN1C(=O)C23CC4(c5c[nH]c6ccccc56)c5ccccc5N(S(=O)(=O)c5ccccc5)C4N2C(=O)C1SS3 (centres unmarked) [Compound 26, C3-(Indol-3′-yl) epidithiodiketopiperazine]
IC50 [1, 10]: 41.7 ± 5.7 nM | IC50 [1, 11]: 41.7 ± 5.7 nM | IC50 ([2]; 72-hour exposure): 67 ± 19 nM | IC50 ([3]; 72-hour exposure): 66 ± 19 nM | IC50 ([4]; 72-hour exposure): 62.7 ± 7.6 nM | induction of apoptosis (phosphatidylserine exposure / propidium iodide inclusion) [5]: induce caspase-dependent apoptotic cell death; also recorded: induce apoptosis | IC50 [6, 12]: 2.8 ± 0.3 nM | IC50 [6, 13]: 2.8 ± 0.3 nM

CN1C(=O)C23CC4(c5c[nH]c6ccccc56)c5ccccc5N(S(=O)(=O)c5ccccc5)[C@@H]4N2C(=O)[C@H]1SC(=S)S3 (some centres unmarked) [Compound 36, C3-(Indol-3′-yl)dithiepanethione]
stability upon concentration or in solution [7]: tends to degrade | IC50 [1, 14]: 33 ± 13 nM | IC50 ([1]; Homo sapiens, HeLa, SRB, error is standard deviation of the mean, n ≧ 3, read-out: HeLa, 72-hour IC50 (Table E1-2)): 33 ± 13 nM | IC50 ([2]; Homo sapiens, MCF7, 72-hour exposure): 163 ± 7 nM | IC50 ([3]; Homo sapiens, NCI-H460, 72-hour exposure): 190 ± 61 nM | IC50 ([4]; Homo sapiens, 786-0, 72-hour exposure): 133 ± 10 nM | IC50 [6, 15]: 3.8 ± 0.9 nM | IC50 ([6]; Homo sapiens, U-937, MTS, error is standard deviation of the mean, n ≧ 3, read-out: U-937, 72-hour IC50 (Table E1-2)): 3.8 ± 0.9 nM | anticancer activity, in words [8]: competent anticancer agents

CN1C(=O)[C@@]23C[C@]4(c5c[nH]c6ccccc56)c5ccccc5N(S(=O)(=O)c5ccccc5)[C@@H]4N2C(=O)[C@@H]1S3 [Compound 25, C3-(Indol-3′-yl)epimonothiodiketopiperazine]
IC50 [1, 14]: 1480 ± 182 nM | solubility [9]: Limited solubility | IC50 [6, 15]: 710 ± 134 nM

CN1C(=O)[C@@]23C[C@]4([C@]56C[C@@]78SSS[C@@](CO)(C(=O)N7[C@H]5Nc5ccccc56)N(C)C8=O)c5ccccc5N[C@@H]4N2C(=O)[C@]1(CO)SSS3 [Compound 5, (+)-chaetocin C]
IC50 [1, 10]: 6.3 ± 0.6 nM | IC50 [1, 11]: 6.3 ± 0.6 nM | IC50 ([2]; 72-hour exposure): 27 ± 11 nM | IC50 ([3]; 72-hour exposure): 26 ± 9.3 nM | IC50 ([4]; 72-hour exposure): 14.6 ± 0.8 nM | induction of apoptosis (phosphatidylserine exposure / propidium iodide inclusion) [5]: induce caspase-dependent apoptotic cell death; also recorded: induce apoptosis | IC50 [6, 12]: 0.75 ± 0.13 nM | IC50 [6, 13]: 0.75 ± 0.13 nM | anticancer activity, in words [8]: active across the board

CN1C(=O)[C@@]23C[C@]4([C@]56C[C@@]78SS[C@@](C)(C(=O)N7[C@H]5N(S(=O)(=O)c5ccccc5)c5ccccc56)N(C)C8=O)c5ccccc5N(S(=O)(=O)c5ccccc5)[C@@H]4N2C(=O)[C@]1(C)SS3 [Compound 14, Dimeric epidithiodiketopiperazine]
IC50 [1, 10]: 0.09 ± 0.06 nM | IC50 [1, 11]: 0.09 ± 0.06 nM | IC50 ([1]; read-out: IC50 (HeLa)): 0.09 nM | IC50 ([2]; 72-hour exposure): 1.65 ± 0.51 nM | IC50 ([3]; 72-hour exposure): 1.53 ± 0.85 nM | IC50 ([4]; 72-hour exposure): 1.55 ± 0.77 nM | induction of apoptosis (phosphatidylserine exposure / propidium iodide inclusion) [5]: induce caspase-dependent apoptotic cell death; also recorded: induce apoptosis | IC50 [6, 12]: 0.18 ± 0.06 nM | IC50 [6, 13]: 0.18 ± 0.06 nM | IC50 ([6]; read-out: IC50 (U-937)): 0.18 nM | anticancer activity, in words [8]: active across the board | potency relative to (+)-12,12′-dideoxyverticillin A (3) ([8]; more potent than the corresponding secondary aniline 3): 2 orders of magnitude

— patent publication US9353150B2, “Substituted pyrazino[1′,2′:1 ,5]pyrrolo[2,3-b]-indole-1,4-diones for cancer treatment” (Massachusetts Institute of Technology, priority 2012, dated 2016)
